Experimental findings from patent publication US20250340575A1, “4-AMINOPYRROLO[2,1-F][1,2,4]TRIAZINES AND PREPARATION AND USES THEREOF” (Biosplice Therapeutics, Inc., priority 2024, published 2025) are described below.

This experiment has as its target recombinant DYRK1A kinase (Homo sapiens, UniProt Q13627). As to the kind of experiment: DYRK1A kinase assay (Ser/Thr 18 peptide Z-lyte FRET). It counts as biochemical. Conditions: DYRK1A 0.25 μg/mL, ATP 15 μM, Ser/Thr peptide 18 4 μM, one hour at room temperature, 11-point dose-response from 10 μM. The method, then:
Representative compounds were screened using the assay procedure for DYRK1A kinase activity as described below.
Each compound was dissolved in DMSO as a 10 mM stock and used to prepare compound source plates. Serial dilution (1:3, 11-point dose-response curves from 10 μM to 0.00016 μM) and compound transfer was performed using the ECHO 550 (Labcyte, Sunnyvale, CA) into 1536-well black-walled round bottom plates (Corning).
The DYRK1A kinase assay was run using the Ser/Thr 18 peptide Z-lyte assay kit according to manufacturer's instructions (Life Technologies—a Division of Thermo-Fisher). This is a non-radioactive assay using fluorescence resonance energy transfer (FRET) between coumarin and fluorescein to detect kinase activity which is represented as a ratio of coumarin emission/fluorescein emission.
Briefly, recombinant DYRK1A kinase, ATP and Ser/Thr peptide 18 were prepared in 1× Kinase buffer to final concentrations of 0.25 μg/mL, 15 μM, and 4 μM respectively. The mixture was allowed to incubate with the representative compounds for one hour at room temperature. All reactions were performed in duplicate. Unphosphorylated (“0% Control”) and phosphorylated (“100% control”) forms of Ser/Thr 18 served as control reactions. Additionally, an 11-point dose-response curve of Staurosporine (1 uM top) was run to serve as a positive compound control.
After incubation, Development Reagent A was diluted in Development Buffer then added to the reaction and allowed to further incubate for one hour at room temperature. The plate was read at Ex 400 Em 455 to detect the coumarin signal and Ex 400 Em 520 to measure the signal (EnVision Multilabel Plate Reader, PerkinElmer).
The Emission ratio (Em) was calculated as a ratio of the coumarin (C) emission signal (at 445 nm)/Fluorescein (F) emission signal (at 520 nm). The percent phosphorylation was then calculated using the following formula: [1−((Em ratio×F100%)−C100%)/((C0%−C100%)+(Em ratio×(F100%−F0%)))]. Dose-response curves were generated, and inhibitory concentration (IC50) values were calculated using non-linear regression curve fit in the Dotmatics' Studies Software (Bishops Stortford, UK).
On to `CNc1nc(N[C@H]2CCN(C(C)=O)C[C@H]2F)nn2cc(F)c(-c3ccc4nc(C)n(CCF)c4n3)c12` [Compound 163, 1-((3R,4S)-3-Fluoro-4-((6-fluoro-5-(3-(2-fluoroethyl)-2-methyl-3H-imidazo [4,5-b]pyridin-5-yl)-4-(methylamino)pyrrolo[2,1-f][1,2,4]triazin-2-yl)amino)piperidin-1-yl)ethan-1-one], for which the IC50 was found to be 1.3 nM. On to `CNc1nc(N[C@H]2CCN(C3COC3)C[C@H]2F)nn2cc(F)c(-c3ccc4nc(C)n(CCF)c4n3)c12` [Compound 164, 6-Fluoro-N^2-((3R,4S)-3-fluoro-1-(oxetan-3-yl)piperidin-4-yl)-5-(3-(2-fluoroethyl)-2-methyl-3H-imidazo[4,5-b]pyridin-5-yl)-N^4-methylpyrrolo[2,1-f][1,2,4]triazine-2,4-diamine], for which the half-inhibitory concentration (IC50) worked out at 1.8 nM. The value for `CNc1nc(N[C@@H]2CCN(C)CC2(F)F)nn2cc(F)c(-c3ccc4nc(C)n(CCF)c4n3)c12` [Compound 165, (R)—N^2-(3,3-Difluoro-1-methylpiperidin-4-yl)-6-fluoro-5-(3-(2-fluoroethyl)-2-methyl-3H-imidazo[4,5-b]pyridin-5-yl)-N^4-methylpyrrolo[2,1-f][1,2,4]triazine-2,4-diamine] was 2.3 nM; that for `CNc1nc(N[C@@H]2CCN(C(C)=O)CC2(F)F)nn2cc(F)c(-c3ccc4nc(C)n(CCF)c4n3)c12` [Compound 166, (R)-1-(3,3-Difluoro-4-((6-fluoro-5-(3-(2-fluoroethyl)-2-methyl-3H-imidazo [4,5-b]pyridin-5-yl)-4-(methylamino)pyrrolo[2,1-f][1,2,4]triazin-2-yl)amino)piperidin-1-yl)ethan-1-one] was 2.9 nM. Regarding `CNc1nc(N[C@@H]2CCN(C3COC3)CC2(F)F)nn2cc(F)c(-c3ccc4nc(C)n(CCF)c4n3)c12` [Compound 168, (R)—N^2-(3,3-Difluoro-1-(oxetan-3-yl)piperidin-4-yl)-6-fluoro-5-(3-(2-fluoroethyl)-2-methyl-3H-imidazo[4,5-b]pyridin-5-yl)-N^4-methylpyrrolo[2,1-f][1,2,4]triazine-2,4-diamine], the IC50 is 1.4 nM. On to `CNc1nc(N[C@H]2CCN(C(=O)CO)C[C@H]2F)nn2ccc(-c3ccc4nc(C)n(CC(F)F)c4n3)c12` [Compound 174, 1-((3R,4S)-4-((5-(3-(2,2-Difluoroethyl)-2-methyl-3H-imidazo[4,5-b]pyridin-5-yl)-4-(methylamino)pyrrolo[2,1-f][1,2,4]triazin-2-yl)amino)-3-fluoropiperidin-1-yl)-2-hydroxyethan-1-one], for which the IC50 worked out at 2 nM.

As for `CNc1nc(N[C@@H]2CCN(C(=O)CO)CC2(F)F)nn2ccc(-c3ccc4nc(C)n(CC(F)F)c4n3)c12` [Compound 175, (R)-1-(4-((5-(3-(2,2-Difluoroethyl)-2-methyl-3H-imidazo[4,5-b]pyridin-5-yl)-4-(methylamino)pyrrolo[2,1-f][1,2,4]triazin-2-yl)amino)-3,3-difluoropiperidin-1-yl)-2-hydroxyethan-1-one], the IC50 was 1.3 nM. The result for `CNc1nc(N[C@@H]2CCN(C(C)=O)CC2(F)F)nn2cc(F)c(-c3ccc4nc(C)n(CC(F)F)c4n3)c12` [Compound 177, (R)-1-(4-((5-(3-(2,2-Difluoroethyl)-2-methyl-3H-imidazo[4,5-b]pyridin-5-yl)-6-fluoro-4-(methylamino)pyrrolo[2,1-f][1,2,4]triazin-2-yl)amino)-3,3-difluoropiperidin-1-yl)ethan-1-one] reads 1.5 nM. For the compound `CCn1nnc2ccc(-c3c(F)cn4nc(N[C@H]5CCN(C6COC6)C[C@H]5F)nc(NC)c34)nc21` [Compound 214, 5-(3-Ethyl-3H-[1,2,3]triazolo[4,5-b]pyridin-5-yl)-6-fluoro-N^2-((3R,4S)-3-fluoro-1-(oxetan-3-yl)piperidin-4-yl)-N^4-methylpyrrolo[2,1-f][1,2,4]triazine-2,4-diamine], the IC50 was 4.9 nM. Turning to `CCn1nnc2ccc(-c3c(F)cn4nc(N[C@@H]5CCN(C)CC5(F)F)nc(NC)c34)nc21` [Compound 215, (R)—N^2-(3,3-Difluoro-1-methylpiperidin-4-yl)-5-(3-ethyl-3H-[1,2,3]triazolo [4,5-b]pyridin-5-yl)-6-fluoro-N^4-methylpyrrolo[2,1-f][1,2,4]triazine-2,4-diamine], the concentration for half-maximal inhibition (IC50) came out at 2.3 nM. Turning to `CCn1nnc2ccc(-c3c(F)cn4nc(N[C@@H]5CCN(C(C)=O)CC5(F)F)nc(NC)c34)nc21` [Compound 216, (R)-1-(4-((5-(3-Ethyl-3H-[1,2,3]triazolo[4,5-b]pyridin-5-yl)-6-fluoro-4-(methylamino)pyrrolo[2,1-f][1,2,4]triazin-2-yl)amino)-3,3-difluoropiperidin-1-yl)ethan-1-one], the half-maximal inhibitory concentration (IC50) came out at 2.6 nM. Take `Nc1nc(N[C@H]2CCN(C3COC3)C[C@H]2F)nn2ccc(-c3ccc4nnn(CCF)c4n3)c12` [Compound 220, N^2-((3R,4S)-3-Fluoro-1-(oxetan-3-yl)piperidin-4-yl)-5-(3-(2-fluoroethyl)-3H-[1,2,3]triazolo[4,5-b]pyridin-5-yl)pyrrolo[2,1-f][1,2,4]triazine-2,4-diamine]: the IC50 turned out to be 5.2 nM. The result for `CN1CC[C@@H](Nc2nc(N)c3c(-c4ccc5nnn(CCF)c5n4)ccn3n2)C(F)(F)C1` [Compound 221, (R)—N^2-(3,3-Difluoro-1-methylpiperidin-4-yl)-5-(3-(2-fluoroethyl)-3H-[1,2,3]triazolo[4,5-b]pyridin-5-yl)pyrrolo[2,1-f][1,2,4]triazine-2,4-diamine] reads 2.8 nM; that for `CC(=O)N1CC[C@@H](Nc2nc(N)c3c(-c4ccc5nnn(CCF)c5n4)ccn3n2)C(F)(F)C1` [Compound 222, (R)-1-(4-((4-Amino-5-(3-(2-fluoroethyl)-3H-[1,2,3]triazolo[4,5-b]pyridin-5-yl)pyrrolo[2,1-f][1,2,4]triazin-2-yl)amino)-3,3-difluoropiperidin-1-yl)ethan-1-one], 3.2 nM; that for `CNc1nc(NC2CCC(F)(F)CC2)nn2ccc(-c3ccc4nnn(CCF)c4n3)c12` [Compound 233, N^2-(4,4-Difluorocyclohexyl)-5-(3-(2-fluoroethyl)-3H-[1,2,3]triazolo[4,5-b]pyridin-5-yl)-N^4-methylpyrrolo[2,1-f][1,2,4]triazine-2,4-diamine], 8.1 nM. Turning to `CNc1nc(N[C@H]2CC[C@](C)(O)CC2)nn2ccc(-c3ccc4nnn(CCF)c4n3)c12` [Compound 234, (1r,4r)-4-((5-(3-(2-Fluoroethyl)-3H-[1,2,3]triazolo[4,5-b]pyridin-5-yl)-4-(methylamino)pyrrolo[2,1-f][1,2,4]triazin-2-yl)amino)-1-methylcyclohexan-1-ol], the concentration for half-maximal inhibition (IC50) was determined as 0.8 nM. On to `CNc1nc(N[C@H]2CCN(C(C)=O)C[C@H]2F)nn2ccc(-c3ccc4nnn(CCF)c4n3)c12` [Compound 235, 1-((3R,4S)-3-Fluoro-4-((5-(3-(2-fluoroethyl)-3H-[1,2,3]triazolo[4,5-b]pyridin-5-yl)-4-(methylamino)pyrrolo[2,1-f][1,2,4]triazin-2-yl)amino)piperidin-1-yl)ethan-1-one], for which the IC50 amounted to 2 nM. As for `CNc1nc(N[C@H]2CCN(C3COC3)C[C@H]2F)nn2ccc(-c3ccc4nnn(CCF)c4n3)c12` [Compound 236, N^2-((3R,4S)-3-fluoro-1-(oxetan-3-yl)piperidin-4-yl)-5-(3-(2-fluoroethyl)-3H-[1,2,3]triazolo[4,5-b]pyridin-5-yl)-N^4-methylpyrrolo[2,1-f][1,2,4]triazine-2,4-diamine], the IC50 came to 2.1 nM. As to `CNc1nc(N[C@@H]2CCN(C)CC2(F)F)nn2ccc(-c3ccc4nnn(CCF)c4n3)c12` [Compound 237, (R)—N^2-(3,3-Difluoro-1-methylpiperidin-4-yl)-5-(3-(2-fluoroethyl)-3H-[1,2,3]triazolo[4,5-b]pyridin-5-yl)-N^4-methylpyrrolo[2,1-f][1,2,4]triazine-2,4-diamine], the IC50 is 0.7 nM. As for `CNc1nc(N[C@@H]2CCN(C(C)=O)CC2(F)F)nn2ccc(-c3ccc4nnn(CCF)c4n3)c12` [Compound 238, (R)-1-(3,3-Difluoro-4-((5-(3-(2-fluoroethyl)-3H-[1,2,3]triazolo[4,5-b]pyridin-5-yl)-4-(methylamino)pyrrolo[2,1-f][1,2,4]triazin-2-yl)amino)piperidin-1-yl)ethan-1-one], the half-maximal inhibitory concentration (IC50) was 1.4 nM. The value for `CNc1nc(N[C@@H]2CCN(C3COC3)CC2(F)F)nn2ccc(-c3ccc4nnn(CCF)c4n3)c12` [Compound 239, (R)—N^2-(3,3-Difluoro-1-(oxetan-3-yl)piperidin-4-yl)-5-(3-(2-fluoroethyl)-3H-[1,2,3]triazolo[4,5-b]pyridin-5-yl)-N^4-methylpyrrolo[2,1-f][1,2,4]triazine-2,4-diamine] was 0.6 nM.
